Read-outs that look alike come from different tables or passages of the source.
Tests used:
[1] = tested on: A549 cells; experiment: Colony-forming assay; type: cell-based, human; settings: 65 μM, 24 h treatment, 7 days cultivation, vs untreated control
Experimental: For the colony-forming assay, floating and adherent cells were harvested together 24 h after treatment with the studied derivatives (35 and 65 µM). The cells were then counted using a Bürker chamber with eosin staining, and 500 viable cells per well were seeded in 6-well plates. After 7 days of cultivation under standard conditions, the cells in the plates were fixed and stained with 1% methylene blue dye in methanol. Visualized colonies were scanned and counted, and the results were evaluated as percentages of the untreated control. The results are presented as the average percentage of colonies from three independent experiments.

[2] = tested on: A549 cells; experiment: Apoptosis by cleaved PARP immunolabelling; type: cell-based, human; settings: A549, 24 h
Experimental: The studied biscoumarin derivatives were added to cells seeded on 12-well μ-Chamber slides for 24 h. After cultivation with the derivatives, the samples (both the control without the derivatives and experimental groups) were washed with a 0.1 M PBS solution buffer to remove all non-cell-absorbed derivative residues and fixed with 4% paraformaldehyde for 20 min at RT. Alternatively, cells were incubated with Mitotracker Red (0.5 µM; Thermo Fisher Scientific, Waltham, MA, USA) for 30 min at 37 °C, washed with 0.1 M PBS, and fixed with 4% paraformaldehyde for 20 min at RT. For the quantification of proliferative activity and programmed cell death, samples were incubated overnight at 4 °C with the mouse anti-Ki67 antibody (NCL-L-Ki67-MM1, 1:100, Leica Biosystems, Wetzlar, Germany) and rabbit anti-cleaved PARP (cat. no. 94885, 1:100, Cell Signaling, Danvers, MA, USA) diluted in 0.1 M PBS containing 1% normal donkey serum (Jackson Immunoresearch, Cambridgeshire, Great Britain) and 0.3% Triton-X 100. […]
All samples were evaluated using a Leica TCS SP5X confocal system (Leica Microsystems, Mannheim, Germany). The biscoumarin derivatives were visualized in cells using a 405 nm laser, and the fluorescence was captured in the range of 420–480 nm with identical exposure parameters for all samples. […]

[3] = tested on: CCD-18Co fibroblasts; experiment: MTT assay, CCD-18Co; type: cell-based; settings: for IC50: Homo sapiens, CCD-18Co
Experimental: (§1) Human lung carcinoma cell line A549 and CCD-18Co colon fibroblasts were purchased from the American Type Culture Collection (ATCC, Rockville, MD, USA). The A549 cells were cultured in a complete RPMI-1640 medium (Sigma-Aldrich, St. Louis, MO, USA), and CCD-18Co cells were cultured in an MEM medium (PAN-Biotech GmbH, Aidenbach, Germany). The media were supplemented with 10% fetal bovine serum (FBS; Biosera, Nuaille, France) and antibiotics (1% Antibiotic-Antimycotic 100× and 50 × 10^−3 g l^−1 gentamicin; Biosera) at 37 °C, 95% humidity, and 5% CO2.
(§2) Prior to the selected treatments, cells were seeded on 12-well μ-Chamber slides (ibidi GmbH, Martinsried, Germany) and 6 and/or 96-well plates (TPP, Trasadingen, Switzerland) and left to settle for 24 h. The biscoumarin derivative solutions (at concentrations ranging from 10–100 µM) were then added to cells for 24 or 48 h, and analysis was subsequently performed.
(§3) MTT assays were performed in order to evaluate changes in the metabolic activity of cells that had occurred as a consequence of treatment with the biscoumarin derivatives. A549 cells (15 × 10^3 cells/cm^2) and CCD-18Co ([…]) were seeded in 96-well microplates. The cells were treated for 24 and 48 h with different concentrations (10, 25, 35, 50, 65, 75, and 100 µM) of the derivatives. After the treatment, the MTT (3-(4,5-dimethylthiazol-2-yl)-2,5-diphenyltertrazolium bromide) solution in PBS (5 mg mL^−1) was added to each well. […]. The absorbance of formazan (λ = 584 nm) was measured using a BMG FLUOstar Optima spectrometer (BMG Labtech GmbH, Offenburg, Germany). The results were evaluated as percentages of the absorbance of the untreated control. Results are presented as the average percentage of cells from three independent experiments. IC50 values for the derivatives were extrapolated from a sigmoidal fit (dose–response curve) to the metabolic activity data using OriginPro 8.5.0 SR1 (OriginLab Corp., Northampton, MA, USA).

[4] = tested on: A549 cells; experiment: Cell cycle analysis (flow cytometry, PI); type: cell-based, human; settings: 35 and 65 µM, 24 h
Experimental: For flow cytometric analysis of the cell cycle distribution, floating and adherent cells were harvested together 24 h after treatment with the derivatives (35 and 65 µM), washed in cold PBS, fixed in cold 70% ethanol, and stored overnight at −20 °C. Prior to analysis, the cells were washed twice in PBS, resuspended in a staining solution (0.1% Triton X-100, 0.137 g L^−1 ribonuclease A and 0.02 g L^−1 propidium iodide—PI), and incubated in dark conditions at RT for 30 min. The DNA content was analyzed using a BD FACSCalibur flow cytometer (Becton Dickinson, San Jose, CA, USA) with a 488 nm argon-ion excitation laser, and fluorescence was detected using a 585/42 nm band-pass filter (FL-2). ModFit 3.0 software (Verity Software House, Topsham, ME, USA) was used to generate DNA content frequency histograms and to quantify the percentage of cells in the individual cell cycle phases. The results are presented as the average ratio of cells in the individual phase to all cells from three independent experiments.

[5] = tested on: A549 cells; experiment: MTT assay, A549; type: cell-based, human; settings: for IC50: Homo sapiens
Experimental: as §1, §2, §3

## COC(=O)Cc1cc(=O)oc2cc(OCCCCCCCCN3CCN(CCNC(=O)Cc4cc(=O)oc5cc(O)ccc45)CC3)ccc12 [12e, Methyl 2-[7-({2-[4-(2-{[2-(7-hydroxy-2-oxo-2H-4-chromenyl)acetyl]amino}etyl)piperazino]oktyl}oxy)-2-oxo-2H-4-chromenyl]acetate]
[1]
  Reduction in relative number of colonies: 20%
[2]
  Apoptotic cells (cleaved PARP): ≤ 0.001%
[3]; 24 or 48 h
  Metabolic activity of CCD-18Co cells (in words): significantly reduced metabolic activity
[3]; 24 h, read-out: IC50 CCD-18Co 24 h
  IC50: > 100 µM
[3]; read-out: IC50 CCD-18Co 48 h, 48 h
  IC50: > 100 µM
[3]; time not stated, read-out: IC50 CCD-18Co
  IC50: > 100 µM
[4]
  Cell cycle distribution, G0/G1 phase (in words): increase in the percentage of the cell population in the G0/G1 phase
[5]; 10 to 100 μM, 24 and 48 h
  Metabolic activity of A549 cells (in words): significant decrease
[5]; A549, 24 h, read-out: IC50 A549 24 h
  IC50: 49 µM
[5]; A549, read-out: IC50 A549 48 h, 48 h
  IC50: 35 µM

Reference: article PMC8068036, “Synthesis of New Biscoumarin Derivatives, In Vitro Cholinesterase Inhibition, Molecular Modelling and Antiproliferative Effect in A549 Human Lung Carcinoma Cells” (International Journal of Molecular Sciences, 2021)
